{"source": "patent US20220265666A1", "about": "“METHODS OF TREATING SUBSTANCE ABUSE DISORDER, DYSPNEA, TINNITUS, AND CHILD AND ADOLESCENT DEPRESSION” (Praxis Precision Medicines, Inc., priority 2019, published 2022)", "origin": "cited, not measured here", "key": {"craving to cocaine": {"test_system": "craving to cocaine", "conditions": "clinical studies"}, "symptoms of tinnitus": {"test_system": "symptoms of tinnitus", "conditions": "clinical studies"}, "[1]": {"test_system": "patients with well controlled asthma"}, "tinnitus behavior": {"test_system": "tinnitus behavior", "conditions": "non-clinical models of tinnitus"}, "[2]": {"conditions": "second day, same patients, previous inhalation with diazepam"}, "[3]": {"conditions": "first day of testing, methacholine inhalation 6 mg/mL, no diazepam, 12 patients"}}, "note": "Read-outs that look alike come from different tables or passages of the source.", "data": [{"smiles": "CC(=O)[C@H]1CC[C@H]2[C@@H]3CCC4=CC(=O)CC[C@]4(C)[C@H]3CC[C@]12C", "note": "[Progesterone]", "values": [{"measurement": "effect on craving to cocaine", "setting": "craving to cocaine", "result": "decrease craving to cocaine"}]}, {"smiles": "O=C1CN=C(c2ccccc2Cl)c2cc([N+](=O)[O-])ccc2N1", "note": "[clonazepam]", "values": [{"measurement": "effect on symptoms of tinnitus", "setting": "symptoms of tinnitus", "result": "control some symptoms of tinnitus"}]}, {"smiles": "CN1C(=O)CN=C(c2ccccc2)c2cc(Cl)ccc21", "note": "[diazepam]", "values": [{"measurement": "effect on bronchoconstriction induced by methacholine", "setting": "[1]; diazepam aerosol, 12 patients with well controlled asthma", "result": "reduced the bronchoconstriction induced by methacholine"}, {"measurement": "FEV1 after methacholine inhalation", "setting": "[1]; [2]", "result": 2.21, "unit": "L"}, {"measurement": "FEV1 before methacholine inhalation", "setting": "[1]; [2]", "result": 2.48, "unit": "L"}]}, {"smiles": "CNC1(c2ccccc2Cl)CCCCC1=O", "note": "(stereo not drawn) [ketamine]", "values": [{"measurement": "effect on tinnitus behavior", "setting": "tinnitus behavior", "result": "not those that reduce excitation (i.e., ketamine) reverse the tinnitus behavior"}]}, {"smiles": "CC(=O)OC(C)C[N+](C)(C)C", "note": "(stereo not drawn) [methacholine]", "values": [{"measurement": "FEV1 after methacholine inhalation", "setting": "[1]; [3]", "result": 1.69, "unit": "L"}, {"measurement": "FEV1 before methacholine inhalation", "setting": "[1]; [3]", "result": 2.98, "unit": "L"}]}, {"smiles": "C=CC(N)CCC(=O)O", "note": "(stereo not drawn) [vigabatrin]", "values": [{"measurement": "effect on tinnitus behavior", "setting": "tinnitus behavior", "result": "reverse the tinnitus behavior"}]}]}
